Values quoted from earlier work as cited in patent US9873913B2, “Mutation testing” (Roche Molecular Systems, Inc., priority 2013, dated 2018).

Test system: non-small cell lung cancer (NSCLC) patients
Conditions: relatively small subset of NSCLC patients after chemotherapy

SMILES: C#Cc1cccc(Nc2ncnc3cc(OCCOC)c(OCCOC)cc23)c1 [erlotinib]
- effect on survival (in words): prolong survival

SMILES: COc1cc2ncnc(Nc3ccc(F)c(Cl)c3)c2cc1OCCCN1CCOCC1 [gefitinib]
- effect on survival (in words): prolong survival
